{
  "source": "patent US20130295185A1",
  "about": "“COMPOUNDS AND METHODS FOR INDUCING APOPTOSIS IN CANCER CELLS USING A BH3 ALPHA-HELICAL MIMETIC” (H. Lee Moffitt Cancer Center and Research Institute, Inc., priority 2011, published 2013)",
  "key": {"Mcl-1 and Bfl-1": {"test_system": "Mcl-1 and Bfl-1", "conditions": "cited from earlier work"}, "[1]": {"test_system": "wild-type and Bax/Bak-deficient fibroblasts", "conditions": "cited from earlier work"}, "[2]": {"test_system": "BH3 binding groove of Bcl-2, Bcl-XL, and Bcl-w", "conditions": "cited from earlier work"}, "A549 cells": {"test_system": "A549 cells", "assay": "BH3-M6 and CEP-1612 alone or in combination in A549 cells (MTT, TUNEL, PARP cleavage)", "assay_type": "cell-based, human", "procedure": "FIG. 7 is a series of images illustrating BH3-M6 sensitizes A549 cells to the proteasome inhibitor CEP-1612 to induce apoptosis. A549 cells were treated with the indicated concentrations of either drug alone or in combination and then processed for various assays as described in EXPERIMENTAL PROCEDURES. (A) Cell viability as measured by MTT assay after 72 h of treatment, error bars indicate standard deviations of triplicates. (B) apoptosis as determined by TUNEL assay after 48 h of treatment. (C) PARP cleavage after 24 hours of drug treatment.\nRelease of cytochrome c from isolated mitochondria was measured as described by Takahashi et al. (Takahashi, Y., Karbowski, M., Yamaguchi, H., Kazi, A., Wu, J., Sebti, S. M., Youle, R. J., and Wang, H. G. (2005) Mol Cell Biol 25, 9369-9382) Cell-free caspase-3/-7 activity and the extent of PARP cleavage was determined as described previously. (Kazi, A., Smith, D. M., Zhong, Q., and Dou, Q. P. (2002) Mol Pharmacol 62, 765-771) MTT (3-(4,5-dimethylthiazol-2-yl)-2,5-diphenyltetrazolium bromide) and TUNEL assays were performed according to Kazi et al., both of which are incorporated herein by reference. (Kazi, A., Lawrence, H., Guida, W. C., McLaughlin, M. L., Springett, G. M., Berndt, N., Yip, R. M. L., and Sebti, S. M. (2009) Cell Cycle 8, 1940-1951)\nTo determine whether BH3-M6 sensitizes cells to apoptosis induced by other stimuli, the inventors treated A549 cells with BH3-M6 and CEP-1612 (Sun, J., Nam, S., Lee, C. S., Li, B., Coppola, D., Hamilton, A. D., Dou, Q. P., and Sebti, S. M. (2001) Cancer Res 61, 1280-1284), either alone or in combination. BH3-M6 and CEP-1612 alone had little effect on cell viability (about 20% and about 28%, respectively) (FIG. 7A) and apoptosis (about 5% and about 8%, respectively) (FIG. 7B). […] The results from FIG. 7C were obtained after about 24 hours of drug treatment, whereas those from FIG. 5C were obtained after about 48 hours of drug treatment."}},
  "data": [
    {"smiles": "CN(C)CC[C@H](CSc1ccccc1)Nc1ccc(S(=O)(=O)NC(=O)c2ccc(N3CCN(Cc4ccccc4-c4ccc(Cl)cc4)CC3)cc2)cc1[N+](=O)[O-]", "note": "[ABT-737]", "values": [
      {"measurement": "binding to Mcl-1 and Bfl-1", "setting": "Mcl-1 and Bfl-1", "result": "only binds weakly"},
      {"measurement": "killing of wild-type vs Bax/Bak-deficient cells", "setting": "[1]", "result": "kills only wild-type, but not Bax/Bak-deficient cells"},
      {"measurement": "affinity for BH3 binding groove of Bcl-2, Bcl-XL, and Bcl-w", "setting": "[2]", "result": "high affinity"}
    ]},
    {"smiles": "CC(C)C[C@@H](C=O)NC(=O)[C@H](CCCN=C(N)N[N+](=O)[O-])NC(=O)C(CCCCCCCCN1C(=O)c2ccccc2C1=O)C1CCCC1", "note": "(stereo partly drawn) [CEP-1612]", "values": [
      {"measurement": "inhibition of cell viability", "setting": "A549 cells; A549, MTT, 72 h", "result": "about 28%"},
      {"measurement": "induction of apoptosis", "setting": "A549 cells; A549, TUNEL, 48 h", "result": "about 8%"},
      {"measurement": "PARP cleavage", "setting": "A549 cells; A549, immunoblot, about 24 hours", "result": "but not either drug alone"}
    ]}
  ]
}
